Assay results taken from the CheMixHub viscosity set.

Assay: xn = mol fraction of the nth substance listed

C=Cc1ccccc1 + C1CCOC1
viscosity [mPa·s], 101.33 kPa
Conditions	x1 = 0.1011	x1 = 0.199	x1 = 0.3001	x1 = 0.401	x1 = 0.4963	x1 = 0.6002	x1 = 0.6993	x1 = 0.8017	x1 = 0.8979
298.15 K	0.514	–	0.595	0.632	0.664	0.695	0.721	0.742	0.747
303.15 K	0.49	0.528	0.562	0.599	0.625	0.658	0.677	0.695	0.699
308.15 K	0.463	0.498	0.532	0.564	0.589	0.616	0.637	0.652	0.651

CCCCCCCCO + CC#N
viscosity [mPa·s], 101 kPa
Conditions	298.15 K	303.15 K	308.15 K
x2 = 0.1277	5.028	4.029	3.493
x2 = 0.2608	3.533	3.09	2.688
x2 = 0.3381	2.848	2.53	2.203
x2 = 0.4447	2.086	1.862	1.638
x2 = 0.5793	1.427	1.282	1.151
x2 = 0.68	1.028	0.927	0.84
x2 = 0.7638	0.77	0.701	0.647
x2 = 0.8283	0.695	0.562	0.523
x2 = 0.8825	0.502	0.472	0.446
x2 = 0.9273	0.435	0.414	0.391
x2 = 0.967	0.39	0.364	0.346

CCCCCCCCO + CCCCCCCO
viscosity [mPa·s]
Conditions	293.15 K	298.15 K	308.15 K	318.15 K
101.33 kPa, x2 = 0.1671	8.821	7.374	–	–
101.33 kPa, x2 = 0.3071	8.507	7.128	–	–
101.33 kPa, x2 = 0.4819	8.113	6.847	–	–
101.33 kPa, x2 = 0.6319	7.827	6.588	–	–
101.33 kPa, x2 = 0.6868	7.688	6.471	–	–
101.33 kPa, x2 = 0.8784	7.302	6.161	–	–
101.8 kPa, x2 = 0.1105	–	7.442	5.362	3.936
101.8 kPa, x2 = 0.3246	–	7.122	5.139	3.78
101.8 kPa, x2 = 0.5285	–	6.742	4.884	3.607
101.8 kPa, x2 = 0.723	–	6.415	4.676	3.463
101.8 kPa, x2 = 0.9101	–	6.128	4.474	3.324

BrC(Br)Br + CCCC#N
298.15 K, 101 kPa
Conditions	viscosity [mPa·s]
x1 = 0.09373	0.6216
x1 = 0.2439	0.8407
x1 = 0.3911	1.021
x1 = 0.4986	1.169
x1 = 0.7	1.46
x1 = 0.9	1.724
